The source of these data is patent publication US20250325676A1, “CAMPTOTHECIN PRODRUG AND PHARMACEUTICAL COMPOSITION THEREOF” (TIANJIN HEMAY ONCOLOGY PHARMACEUTICAL CO., LTD, priority 2022, published 2025).

The subject of one test is MDA-MB-468. Kind of test: In vitro inhibition of human tumor cells, MDA-MB-468, SRB method. (In SRB staining, fixed cells bind dye roughly in proportion to their protein.)
The test system of a further test is BxPC-3. Kind of test: In vitro inhibition of human tumor cells, BxPC-3, MTT method. It is filed as cell-based. How it is done: (§1) The cells were allowed to adhere overnight.
(§2) Adherent cells: Culture medium was aspirated and 100 μl/wells of basal culture (generally refers to medium without fetal bovine serum (FBS) and other additives) containing 0.5 mg/ml MTT were added. The cells were cultured for 3 hours. MTT-containing basal medium was aspirated and 100 μl/wells of DMSO were added to dissolve formazan.
(§3) Unstably adherent cells: Unstably adherent cells were directly added to the MTT solution to achieve the concentration of 0.5 mg/ml and cultured for 3 hours. The ternary solution in an equal volume to the system was added to the system to dissolve the formazan.
(§4) The DMSO concentration was 0.1%.
In general terms: Formazan colour is commonly taken as a measure of viable cells.

Another test relates to HCT116. As to the kind of experiment: In vitro inhibition of human tumor cells, HCT116, MTT method. It is filed as cell-based. How it is done:
as §1, §2, §3, §4

For another test, the system named is SW620. As to the kind of experiment: In vitro inhibition of human tumor cells, SW620, SRB method. It is filed as cell-based.
Source text: as §1
(§5) Trichloroacetic acid was removed. […] Excess SRB was removed.
as §4

The next test concerns NCI-N87. Kind of test: In vitro inhibition of human tumor cells, NCI-N87, MTT method. It is filed as cell-based.
The subject of a further test is LoVo. As to the kind of experiment: In vitro inhibition of human tumor cells, LoVo, SRB method. It is filed as cell-based.
Source text: as §1, §5, §4

A further test relates to NCI-H460. Kind of test: In vitro inhibition of human tumor cells, NCI-H460, MTT method. The test is classed as cell-based. How it is done:
as §1, §2, §3, §4

The subject of test [1] is human small cell lung cancer NCI-H446. The following applies: 20 mg/kg i.v. qw × 2; NCI-H446 model.
Protocol: An allogeneic transplantation model of human small cell lung cancer NCI-H446 was established in nude mice subcutaneously using a tumor block inoculation method. When the tumor volume of the allogeneic transplantation was about 100 to 300 mm^3 and remained stable, the experimental animals were randomly divided into groups according to the size of the tumor volume (day 0, i.e., d0) using a remainder method. The tumor volume was measured 2 to 3 times a week. At the end of the dosage period, the experimental animals were sacrificed. The subcutaneous tumors were peeled and weighed. The anti-tumor activity of the drug against the model was evaluated based on tumor volume and tumor weight-related data.
The calculation formula of the tumor volume was: Volume=0.5×long diameter×short diameter×short diameter.
V0 was the resulting tumor volume measured at the time of dosing in groups (i.e., d0) and Vt was the tumor volume at each measurement.
T was the subject and C was the model control.
TRTV was the average RTV of the subject, and CRTV was the average RTV of the model control group.
Wn: average body weight of each group of experimental animals on day n, and W0: average body weight of each group of experimental animals on day 0.
In test [2] the test system is human colon cancer HCT116. The following applies: 30 mg/kg i.v. qw × 2; HCT116 large tumor after irinotecan. The source says:
When the tumor volume was more than 600 mm^3 and stable growth was maintained, the experimental animals were randomly divided by the remainder method and administered according to the size of the tumor volume. […] The subcutaneous tumors were stripped and weighed.
T was the subject and C is the model control.
Tumor volume growth was observed on a regular basis after completion of dosing.

Where [3] appears, read: No βGU (direct effects of compound on cells).

Protocol for MDA-MB-468: 1.1.2 Cell culture method: Cells were cultured in complete medium, 37° C., 5% CO2, saturated humidity to log growth phase (adherent cells generally attended to complete fusion), and cells were collected for subsequent experiments (adherent cells were first digested with trypsin/ethylene diamine tetraacetic acid (EDTA) to remove adherent).
1.1.3 96-well cell culture plates (hereinafter referred to as 96-well plates) were inoculated with a certain number of cells (see Table 1 for details). The cells were allowed to adhere overnight. […] Finally, the total amount of cell protein in the assay wells was determined by the SRB method, or the cell viability was determined by the MTT method:
The culture medium was aspirated from the wells and the cells were fixed for 1 hour or more by adding 10% trichloroacetic acid. Trichloroacetic acid was removed. The resultant was washed with H2O and stained with 0.4% SRB for 15 to 30 minutes. Excess SRB was removed. The resultant was washed with 1% acetic acid. The protein-bound SRB was dissolved by adding 10 mM of 100 μl Tris (trishydroxymethylaminomethane). Tests were carried out at the wavelength of 570 nm.
1.1.4 dilution and addition of β-glucuronidase: 1 to 2 mg of β-glucuronidase was weighed and dissolved in PBS to give a 2 mg/ml of stock solution. […] 80 μl of enzyme working solution was added to the enzyme-containing assay wells. The amount of β-glucuronidase was 1 μg/wells. No enzyme-containing assay wells were added to the 80 μl of complete medium.
The assay wells were charged with 20 μl of 10× compound working solution. The final volume was 200 μl per well. The DMSO concentration was 0.1%.
1.1.6 Compound inhibition activity calculation: The test included a compound test group, a compound-free positive solvent control group (PC) and a compound-free negative solvent control group (NC). […] The average inhibition rate and the standard deviation (SD) were obtained from the repeated test wells. The average inhibition rate was plotted on the basis of the compound concentration as an abscissa and distributed in the form of logarithms. The curve was fitted to the Logistic 4 parameter equation. […] The test was generally repeated to obtain 3 valid results.

Regarding “(2S,3S,4S,5R,6S)-6-(3-((1-(8-((4′-((E)-(8-amino-1-hydroxy-5,7-disulfonicnaphthalen-2-yl)diazenyl)-3,3′-dimethyl-[1,1′-biphenyl]-4-yl)amino)-8-oxooctyl)-1H-1,2,3-triazol-4-yl)methoxy)-4-((((S)-4,11-diethyl-4-hydroxy-3,14-dioxy-3,4,12,14-tetrahydro-1H-pyrano[3′,4′:6,7]indolazino[1,2-b]quinolin-9-yl)oxy)methyl)-2-methylphenoxy)-3,4,5-trihydroxytetrahydro-2H-pyran-2-carboxylate trisodium [Example 48]”, the IC50 (commonly the concentration at which inhibition is half-maximal) in the test with MDA-MB-468 (Adding βGU) is 7.3 nM; in the test with MDA-MB-468 (No βGU), 94 nM; in the test on BxPC-3 (Adding βGU) it was 28 nM; with BxPC-3 (No βGU), 432 nM; in the test on HCT116 (Adding βGU (β-glucuronidase)) it was 5.9 nM; in the test on HCT116 (setting [3]), 119 nM. Besides, the IC50 is 10 nM in the test with SW620 (Adding βGU); 230 nM with SW620 (No βGU); 52 nM in the test with NCI-N87 (Adding βGU); 1200 nM in the test on NCI-N87 (No βGU); 28 nM in the test on LoVo (Adding βGU); 372 nM in the test on LoVo (No βGU). Further, the results for the IC50 with NCI-H460 (Adding βGU) and with NCI-H460 (No βGU) were 6.8 nM and 419 nM, respectively.
Turning to “(2S,3S,4S,5R,6S)-6-(3-((1-(6-((4′-((E)-(8-amino-1-hydroxy-5,7-disulfonicnaphthalen-2-yl)diazenyl)-3,3′-dimethyl-[1,1′-biphenyl]-4-yl)amino)-6-oxohexyl)-1H-1,2,3-triazol-4-yl)methoxy)-4-((((S)-4,11-diethyl-4-hydroxy-3,14-dioxy-3,4,12,14-tetrahydro-1H-pyrano[3′,4′:6,7]indolazino[1,2-b]quinolin-9-yl)oxy)methyl)2-methylphenoxy)-3,4,5-trihydroxytetrahydro-2H-pyran-2-carboxylate trisodium [Example 14]”, the half-inhibitory concentration (IC50) is 4.4 nM in the test with MDA-MB-468 (Adding βGU); 106 nM in the test with MDA-MB-468 (No βGU); 16 nM with BxPC-3 (Adding βGU); 406 nM in the test with BxPC-3 (No βGU); 3.3 nM in the test with HCT116 (Adding βGU (β-glucuronidase)); 175 nM with HCT116 (setting [3]). In addition, the IC50 in the test on SW620 (Adding βGU) turned out to be 6.3 nM; in the test with SW620 (No βGU) it was 151 nM; in the test on NCI-N87 (Adding βGU), 26 nM; in the test on NCI-N87 (No βGU), 1480 nM; in the test with LoVo (Adding βGU) it was 10 nM; in the test with LoVo (No βGU), 204 nM. Further, the IC50 turned out to be 8.7 nM in the test with NCI-H460 (Adding βGU) and 533 nM with NCI-H460 (No βGU). In test [1], the “Relative volume RTV (X ± S.D.)” value was 0.69 ± 0.45. Besides, the “T/C (%)” value in test [1] is 10.2%. Moreover, in [1], the “Tumor inhibition rate (%)” value is listed as 91.3%. The “Tumor weight (g, X ± S.D.)” value in [1] is 0.085 ± 0.075 g.
“(2S,3S,4S,5R,6S)-6-(3-((1-(6-((4′-((E)-(8-amino-1-hydroxy-5,7-disulfonicnaphthalen-2-yl)diazenyl)-[1,1′-biphenyl]-4-yl)amino)-6-oxohexyl)-1H-1,2,3-triazol-4-yl)methoxy)-4-((((S)-4-ethyl-4-hydroxy-3,14-dioxo-3,4,12,14-tetrahydro-1H-pyrano[3′,4′:6,7]indolazino[1,2-b]quinolin-9-yl)oxy)methyl)phenoxy)-3,4,5-trihydroxytetrahydro-2H-pyran-2-carboxylate trisodium [Example 29]”: the IC50 in the test with MDA-MB-468 (Adding βGU) was found to be 14 nM; in the test on MDA-MB-468 (No βGU), 788 nM; with BxPC-3 (Adding βGU) it was 38 nM; in the test with BxPC-3 (No βGU) it was 916 nM; in the test on HCT116 (Adding βGU (β-glucuronidase)), 17 nM; in the test on HCT116 (setting [3]) it was 1350 nM. Also, the IC50 turned out to be 9.6 nM in the test with SW620 (Adding βGU); 350 nM with SW620 (No βGU); 64 nM in the test with NCI-N87 (Adding βGU); 55 nM with LoVo (Adding βGU); 1200 nM in the test on LoVo (No βGU); 30 nM in the test on NCI-H460 (Adding βGU). Moreover, the “inhibition rate at 2 μM” value with NCI-N87 (No βGU) is 2 μM about 31.0%; with NCI-H460 (No βGU, 2 μM), 2 μM about 43.9%.
With “(2S,3S,4S,5R,6S)-6-(3-((1-(6-((4′-((E)-(8-amino-1-hydroxy-5,7-disulfonicnaphthalen-2-yl)diazenyl)-3,3′-dimethoxy-[1,1′-biphenyl]-4-yl)amino)-6-oxohexyl)-1H-1,2,3-triazol-4-yl)methoxy)-4-(((S)-4-ethyl-4-hydroxy-3,14-dioxy-3,4,12,14-tetrahydro-1H-pyrano[3′,4′:6,7]indolazino[1,2-b]quinolin-9-yl)oxy)methyl)phenoxy)-3,4,5-trihydroxytetrahydro-2H-pyran-2-carboxylate trisodium [Example 31]”, the IC50 in the test with MDA-MB-468 (Adding βGU) was 11 nM; in the test on MDA-MB-468 (No βGU), 329 nM; in the test with BxPC-3 (Adding βGU), 21 nM; with BxPC-3 (No βGU), 518 nM; in the test on HCT116 (Adding βGU (β-glucuronidase)) it was 9.3 nM; in the test on HCT116 (setting [3]) it was 339 nM. The IC50 in the test with SW620 (Adding βGU) came out at 10 nM; in the test with SW620 (No βGU), 220 nM; in the test on NCI-N87 (Adding βGU), 62 nM; in the test with NCI-N87 (No βGU) it was 1770 nM; in the test with LoVo (Adding βGU) it was 32 nM; in the test with LoVo (No βGU), 699 nM. Moreover, the IC50 in the test on NCI-H460 (Adding βGU) was determined as 19 nM; with NCI-H460 (No βGU), 540 nM.
As for “(2S,3S,4S,5R,6S)-6-(3-((1-(3-(2-((4′-(E)-(8-amino-1-hydroxy-5,7-disulfonicnaphthalen-2-yl)diazenyl)-3,3′-dimethyl-[1,1′-biphenyl]-4-yl)amino)-2-oxoethoxy)propyl)-1H-1,2,3-triazol-4-yl)methoxy)-4-((((S)-4,11-diethyl-4-hydroxy-3,14-dioxy-3,4,12,14-tetrahydro-1H-pyrano[3′,4′:6,7]indolazino[1,7]quinolin-9-yl)oxy)methyl)phenoxy)-3,4, 5-trihydroxytetrahydro-2H-pyran-2-carboxylate trisodium [Example 96]”, the IC50 with MDA-MB-468 (Adding βGU) was 7.5 nM. Moreover, in the test on MDA-MB-468 (No βGU), the IC50 came to 213 nM. The IC50 in the test on NCI-N87 (Adding βGU) is 30 nM. Moreover, the IC50 in the test on NCI-N87 (No βGU) was determined as 964 nM. Also, in [2], the “Relative volume RTV (X ± S.D.)” value came to 0.78 ± 0.03; the “T/C (%)” value is listed as 21.0%; the “Tumor inhibition rate (%)” value is listed as 84.4%; the “Tumor weight (g, X ± S.D.)” value amounted to 0.425 ± 0.091 g.
As for “(2S,3S,4S,5R,6S)-6-(3-((1-(6-((4′-((E)-(8-amino-1-hydroxy-5,7-disulfonicnaphthalen-2-yl)diazenyl)-[1,1′-biphenyl]-4-yl)amino)-6-oxohexyl)-1H-1,2,3-triazol-4-yl)methoxy)-4-((((S)-4,11-diethyl-4-hydroxy-3,14-dioxo-3,4,12,14-tetrahydro-1H-pyrano[3′,4′:6,7]indolazino[1,7]quinolin-9-yl)oxy)methyl)-2-methylphenoxy)-3,4,5-trihydroxytetrahydro-2H-pyran-2-carboxylate trisodium [Example 18]”, the IC50 in the test with MDA-MB-468 (Adding βGU) came out at 5.5 nM; in the test with MDA-MB-468 (No βGU), 110 nM; with BxPC-3 (Adding βGU), 17 nM; in the test on BxPC-3 (No βGU) it was 1620 nM; in the test with HCT116 (Adding βGU (β-glucuronidase)) it was 6.5 nM; in the test on HCT116 (setting [3]), 186 nM. In addition, the concentration for half-maximal inhibition (IC50) came to 6.8 nM in the test on SW620 (Adding βGU); 204 nM with SW620 (No βGU); 29 nM with NCI-N87 (Adding βGU); 19 nM in the test on LoVo (Adding βGU); 812 nM with LoVo (No βGU); 7.6 nM in the test on NCI-H460 (Adding βGU). For the same substance, in the test with NCI-H460 (No βGU), the IC50 worked out at 533 nM. Besides, the “inhibition rate at 2 μM” value in the test with NCI-N87 (No βGU) amounted to 2 μM about 49.3%.
